# Assay results taken from the supplement of paper PMC10307832.
# Key:
# Experiment in all cases: relative viability (nuclei count vs DMSO), 5 days (fraction); higher = more cells survive
# COR-L 105 = tested on: COR-L 105
# In short: (§1)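 Lung cancer cell lines in 1536-well plates got either a single drug or a fixed anchor-drug dose together with five library-drug doses (not always all listed) in √10 steps, by pin tool, on the day after seeding. Nuclei were counted after 5 days, and relative viability is the treated-to-vehicle ratio of nuclei counts. Values are medians of duplicate plates.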
# LCLC-103H = tested on: LCLC-103H
# In short: as §1
# LK-2 = tested on: LK-2
# In short: as §1
# NCI-H1355 = tested on: NCI-H1355
# In short: as §1
# NCI-H1648 = tested on: NCI-H1648
# In short: as §1
# NCI-H520 = tested on: NCI-H520
# In short: as §1
# NCI-H522 = tested on: NCI-H522
# In short: as §1
smiles,measurement,setting,value
CCN(CC)CCCCNc1ncc2cc(-c3cc(OC)cc(OC)c3)c(NC(=O)NC(C)(C)C)nc2n1 + Nc1nc2[nH]cc(CCc3ccc(C(=O)N[C@@H](CCC(=O)O)C(=O)O)cc3)c2c(=O)[nH]1 [Pemetrexed] (partner 0.2 µM),relative viability,COR-L 105; first compound 0.01 µM,1.23
same,relative viability,COR-L 105; first compound 0.03162 µM,1.12
same,relative viability,COR-L 105; first compound 0.1 µM,1.18
same,relative viability,COR-L 105; first compound 0.3162 µM,1.47
same,relative viability,COR-L 105; first compound 1 µM,1.05
same,relative viability,LCLC-103H; first compound 0.01 µM,0.444
same,relative viability,LCLC-103H; first compound 0.03162 µM,0.488
same,relative viability,LCLC-103H; first compound 0.1 µM,0.485
same,relative viability,LCLC-103H; first compound 0.3162 µM,0.457
same,relative viability,LCLC-103H; first compound 1 µM,0.533
same,relative viability,LK-2; first compound 0.01 µM,0.267
same,relative viability,LK-2; first compound 0.03162 µM,0.272
same,relative viability,LK-2; first compound 0.1 µM,0.273
same,relative viability,LK-2; first compound 0.3162 µM,0.149
same,relative viability,LK-2; first compound 1 µM,0.145
same,relative viability,NCI-H1355; first compound 0.01 µM,1.06
same,relative viability,NCI-H1355; first compound 0.03162 µM,1.09
same,relative viability,NCI-H1355; first compound 0.1 µM,1.17
same,relative viability,NCI-H1355; first compound 0.3162 µM,1.11
same,relative viability,NCI-H1355; first compound 1 µM,1.02
same,relative viability,NCI-H1648; first compound 0.01 µM,0.7
same,relative viability,NCI-H1648; first compound 0.03162 µM,0.815
same,relative viability,NCI-H1648; first compound 0.1 µM,0.722
same,relative viability,NCI-H1648; first compound 0.3162 µM,0.491
same,relative viability,NCI-H1648; first compound 1 µM,0.487
same,relative viability,NCI-H520; first compound 0.01 µM,0.8
same,relative viability,NCI-H520; first compound 0.03162 µM,0.694
same,relative viability,NCI-H520; first compound 0.1 µM,0.555
same,relative viability,NCI-H520; first compound 0.3162 µM,0.511
same,relative viability,NCI-H520; first compound 1 µM,0.314
same,relative viability,NCI-H522; first compound 0.01 µM,0.989
same,relative viability,NCI-H522; first compound 0.03162 µM,0.918
same,relative viability,NCI-H522; first compound 0.1 µM,1.09
same,relative viability,NCI-H522; first compound 0.3162 µM,0.888
same,relative viability,NCI-H522; first compound 1 µM,0.921
COc1nc(C)cnc1NS(=O)(=O)c1cccnc1-c1ccc(-c2nnco2)cc1 [Zibotentan] + Nc1nc2[nH]cc(CCc3ccc(C(=O)N[C@@H](CCC(=O)O)C(=O)O)cc3)c2c(=O)[nH]1 [Pemetrexed] (partner 0.2 µM),relative viability,COR-L 105; first compound 0.08 µM,1.08
same,relative viability,COR-L 105; first compound 0.253 µM,0.87
same,relative viability,COR-L 105; first compound 0.8 µM,1.21
same,relative viability,COR-L 105; first compound 2.53 µM,1.05
same,relative viability,LCLC-103H; first compound 0.08 µM,0.428
same,relative viability,LCLC-103H; first compound 0.253 µM,0.471
same,relative viability,LCLC-103H; first compound 0.8 µM,0.429
same,relative viability,LCLC-103H; first compound 2.53 µM,0.533
same,relative viability,LK-2; first compound 0.08 µM,0.299
same,relative viability,LK-2; first compound 0.253 µM,0.252
same,relative viability,LK-2; first compound 0.8 µM,0.302
same,relative viability,LK-2; first compound 2.53 µM,0.208
same,relative viability,NCI-H1355; first compound 0.08 µM,1.04
same,relative viability,NCI-H1355; first compound 0.253 µM,1.05
same,relative viability,NCI-H1355; first compound 0.8 µM,1.03
same,relative viability,NCI-H1355; first compound 2.53 µM,1.07
same,relative viability,NCI-H1648; first compound 0.08 µM,0.791
same,relative viability,NCI-H1648; first compound 0.253 µM,0.686
same,relative viability,NCI-H1648; first compound 0.8 µM,0.532
same,relative viability,NCI-H1648; first compound 2.53 µM,0.635
same,relative viability,NCI-H520; first compound 0.08 µM,0.626
same,relative viability,NCI-H520; first compound 0.253 µM,0.665
same,relative viability,NCI-H520; first compound 0.8 µM,0.682
same,relative viability,NCI-H520; first compound 2.53 µM,0.695
same,relative viability,NCI-H522; first compound 0.08 µM,0.909
same,relative viability,NCI-H522; first compound 0.253 µM,1.03
same,relative viability,NCI-H522; first compound 0.8 µM,0.881
same,relative viability,NCI-H522; first compound 2.53 µM,0.758
